Experimental data from patent US20210283261A1, “Compositions and Methods for Treating ALK-Mediated Cancer” (ICAHN SCHOOL OF MEDICINE AT MOUNT SINAI, priority 2017, published 2021).

Biological target: T1, ALK fusion protein (Homo sapiens, UniProt Q9UM73)
T1 construct: endogenous in cells; host or cells: NCI-H3122; the other entry of the earlier key: EML4 (Q9HC35, Echinoderm microtubule-associated protein-like 4)
Assay: Western blot of ALK fusion protein levels in NCI-H3122 cells
Format: cell-based
Details: NCI-H3122, NCI-H3122 cells, 500 nM, Western blot; read-out: ALK fusion protein degradation, NCI-H3122 (500 nM)
Description: SU-DHL-1, NCI-H3122 and NCI-H2228 cells were cultured in RPMI-1640 medium supplemented with 10% fetal bovine serum, 50 μg/mL penicillin and streptomycin. Cells were cultured in a 37° C. incubator with 5% CO2.
Cells were washed with cold PBS once and lysed in 1× Laemmli loading buffer directly. Lysates were heated at 99° C. for […], and resolved on 4-15% precast SDS-PAGE (BIO-RAD) and transferred onto PVDF membrane. Membrane was blocked in 5% milk in Tris-buffered saline and Tween 20 (TBST) for 1 h at room temperature, followed by incubation with a primary antibody overnight at 4° C., and a horseradish peroxidase (HRP)-conjugated secondary antibody for 1 h at room temperature. The membrane was imaged by a ChemiDoc MP imaging system (BIO-RAD). Antibodies against GAPDH (abeam), Phospho-ALK (Tyr1507), ALK (Cell Signaling Technology), Tubulin (Santa Cruz) were purchased commercially. […]

T1 sequence (Q9UM73 with tags, fused parts or gaps): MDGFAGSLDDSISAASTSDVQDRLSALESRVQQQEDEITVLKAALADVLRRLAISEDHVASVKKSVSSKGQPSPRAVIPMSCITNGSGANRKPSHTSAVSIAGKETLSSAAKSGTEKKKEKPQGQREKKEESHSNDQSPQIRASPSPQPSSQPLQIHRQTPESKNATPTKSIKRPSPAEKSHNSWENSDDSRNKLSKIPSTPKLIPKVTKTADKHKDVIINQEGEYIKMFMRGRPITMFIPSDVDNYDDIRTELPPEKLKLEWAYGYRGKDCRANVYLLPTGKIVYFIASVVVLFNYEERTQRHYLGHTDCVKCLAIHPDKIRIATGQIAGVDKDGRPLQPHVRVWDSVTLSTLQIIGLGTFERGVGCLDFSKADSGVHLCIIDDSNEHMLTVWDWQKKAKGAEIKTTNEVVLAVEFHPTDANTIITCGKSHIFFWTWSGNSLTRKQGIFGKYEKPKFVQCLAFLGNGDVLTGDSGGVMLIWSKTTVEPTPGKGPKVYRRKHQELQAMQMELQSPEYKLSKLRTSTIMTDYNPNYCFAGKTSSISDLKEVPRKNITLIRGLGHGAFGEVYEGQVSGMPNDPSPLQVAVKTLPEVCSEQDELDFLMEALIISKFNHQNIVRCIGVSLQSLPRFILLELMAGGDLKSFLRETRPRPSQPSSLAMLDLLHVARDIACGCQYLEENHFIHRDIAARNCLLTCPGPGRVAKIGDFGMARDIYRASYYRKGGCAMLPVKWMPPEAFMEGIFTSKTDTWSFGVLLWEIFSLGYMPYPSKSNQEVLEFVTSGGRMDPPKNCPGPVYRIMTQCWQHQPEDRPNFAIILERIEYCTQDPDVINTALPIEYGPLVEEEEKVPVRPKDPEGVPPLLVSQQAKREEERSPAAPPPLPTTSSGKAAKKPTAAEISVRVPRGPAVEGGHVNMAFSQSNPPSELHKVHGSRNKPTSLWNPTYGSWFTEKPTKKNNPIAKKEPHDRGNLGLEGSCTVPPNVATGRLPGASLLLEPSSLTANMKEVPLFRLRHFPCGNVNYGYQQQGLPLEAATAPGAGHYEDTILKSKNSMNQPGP

Compound | Dmax at 0.5 µM
Cc1cc(Nc2ncc(Cl)c(Nc3ccccc3S(=O)(=O)C(C)C)n2)c(OC(C)C)cc1C1CCN(C(=O)CCCCCCC(=O)N[C@H](C(=O)N2C[C@H](O)C[C@H]2C(=O)NCc2ccc(-c3scnc3C)cc2)C(C)(C)C)CC1 [CZ47-26, (2S,4R)-1-((S)-2-(8-(4-(4-((5-Chloro-4-((2-(isopropylsulfonyl)phenyl)amino)pyrimidin-2-yl)amino)-5-isopropoxy-2-methylphenyl)piperidin-1-yl)-8-oxooctanamido)-3,3-dimethylbutanoyl)-4-hydroxy-N-(4-(4-methylthiazol-5-yl)benzyl)pyrrolidine-2-carboxamide] | > 80%
Cc1cc(Nc2ncc(Cl)c(Nc3ccccc3S(=O)(=O)C(C)C)n2)c(OC(C)C)cc1C1CCN(C(=O)CCCCNc2cccc3c2C(=O)N(C2CCC(=O)NC2=O)C3=O)CC1 (stereo not drawn) [CZ47-04, 4-((5-(4-(4-((5-Chloro-4-((2-(isopropylsulfonyl)phenyl)amino)pyrimidin-2-yl)amino)-5-isopropoxy-2-methylphenyl)piperidin-1-yl)-5-oxopentyl)amino)-2-(2,6-dioxopiperidin-3-yl)isoindoline-1,3-dione] | 20 to 80%
Cc1cc(Nc2ncc(Cl)c(Nc3ccccc3S(=O)(=O)C(C)C)n2)c(OC(C)C)cc1C1CCN(C(=O)CCOCCOCCOCCOCCOCCNc2cccc3c2C(=O)N(C2CCC(=O)NC2=O)C3=O)CC1 (stereo not drawn) [CZ47-12, 4-((18-(4-(4-((5-Chloro-4-((2-(isopropylsulfonyl)phenyl)amino)pyrimidin-2-yl)amino)-5-isopropoxy-2-methylphenyl)piperidin-1-yl)-18-oxo-3,6,9,12,15-pentaoxaoctadecyl)amino)-2-(2,6-dioxopiperidin-3-yl)isoindoline-1,3-dione] | 20 to 80%
Cc1cc(Nc2ncc(Cl)c(Nc3ccccc3S(=O)(=O)C(C)C)n2)c(OC(C)C)cc1C1CCN(C(=O)CCOCCOCCOCCC(=O)N[C@H](C(=O)N2C[C@H](O)C[C@H]2C(=O)NCc2ccc(-c3scnc3C)cc2)C(C)(C)C)CC1 [CZ47-18, (2S,4R)-1-((S)-2-(tert-Butyl)-16-(4-(4-((5-chloro-4-((2-(isopropylsulfonyl)phenyl)amino)pyrimidin-2-yl)amino)-5-isopropoxy-2-methylphenyl)piperidin-1-yl)-4,16-dioxo-7,10,13-trioxa-3-azahexadecanoyl)-4-hydroxy-N-(4-(4-methylthiazol-5-yl)benzyl)pyrrolidine-2-carboxamide] | < 20%
Cc1cc(Nc2ncc(Cl)c(Nc3ccccc3S(=O)(=O)C(C)C)n2)c(OC(C)C)cc1C1CCN(C(=O)CCOCCOCCOCCOCCC(=O)N[C@H](C(=O)N2C[C@H](O)C[C@H]2C(=O)NCc2ccc(-c3scnc3C)cc2)C(C)(C)C)CC1 [CZ47-19, (2S,4R)-1-((S)-2-(tert-Butyl)-19-(4-(4-((5-chloro-4-((2-(isopropylsulfonyl)phenyl)amino)pyrimidin-2-yl)amino)-5-isopropoxy-2-methylphenyl)piperidin-1-yl)-4,19-dioxo-7,10,13,16-tetraoxa-3-azanonadecanoyl)-4-hydroxy-N-(4-(4-methylthiazol-5-yl)benzyl)pyrrolidine-2-carboxamide] | < 20%
Cc1cc(Nc2ncc(Cl)c(Nc3ccccc3S(=O)(=O)C(C)C)n2)c(OC(C)C)cc1C1CCN(C(=O)CCCCCCCC(=O)N[C@H](C(=O)N2C[C@H](O)C[C@H]2C(=O)NCc2ccc(-c3scnc3C)cc2)C(C)(C)C)CC1 [CZ47-27, (2S,4R)-1-((S)-2-(9-(4-(4-((5-Chloro-4-((2-(isopropylsulfonyl)phenyl)amino)pyrimidin-2-yl)amino)-5-isopropoxy-2-methylphenyl)piperidin-1-yl)-9-oxononanamido)-3,3-dimethylbutanoyl)-4-hydroxy-7V-(4-(4-methylthiazol-5-yl)benzyl)pyrrolidine-2-carboxamide] | > 80%
Cc1cc(Nc2ncc(Cl)c(Nc3ccccc3S(=O)(=O)C(C)C)n2)c(OC(C)C)cc1C1CCN(C(=O)CCCCCCCNc2cccc3c2C(=O)N(C2CCC(=O)NC2=O)C3=O)CC1 (stereo not drawn) [CZ47-07, 4-((8-(4-(4-((5-Chloro-4-((2-(isopropylsulfonyl)phenyl)amino)pyrimidin-2-yl)amino)-5-isopropoxy-2-methylphenyl)piperidin-1-yl)-8-oxooctyl)amino)-2-(2,6-dioxopiperidin-3-yl)isoindoline-1,3-dione] | 20 to 80%
Cc1cc(Nc2ncc(Cl)c(Nc3ccccc3S(=O)(=O)C(C)C)n2)c(OC(C)C)cc1C1CCN(C(=O)CCCCCCCCCC(=O)N[C@H](C(=O)N2C[C@H](O)C[C@H]2C(=O)NCc2ccc(-c3scnc3C)cc2)C(C)(C)C)CC1 [CZ47-29, (2S,4R)-1-((S)-2-(ll-(4-(4-((5-Chloro-4-((2-(isopropylsulfonyl)phenyl)amino)pyrimidin-2-yl)amino)-5-isopropoxy-2-methylphenyl)piperidin-1-yl)-11-oxoundecanamido)-3,3-dimethylbutanoyl)-4-hydroxy-N-(4-(4-methylthiazol-5-yl)benzyl)pyrrolidine-2-carboxamide] | < 20%
Cc1cc(Nc2ncc(Cl)c(Nc3ccccc3S(=O)(=O)C(C)C)n2)c(OC(C)C)cc1C1CCN(C(=O)CCOCCOCCNc2cccc3c2C(=O)N(C2CCC(=O)NC2=O)C3=O)CC1 (stereo not drawn) [CZ47-09, 4-((2-(2-(3-(4-(4-((5-Chloro-4-((2-(isopropylsulfonyl)phenyl)amino)pyrimidin-2-yl)amino)-5-isopropoxy-2-methylphenyl)piperidin-1-yl)-3-oxopropoxy)ethoxy)ethyl)amino)-2-(2,6-dioxopiperidin-3-yl)isoindoline-1,3-dione] | > 80%
Cc1cc(Nc2ncc(Cl)c(Nc3ccccc3S(=O)(=O)C(C)C)n2)c(OC(C)C)cc1C1CCN(C(=O)CCOCCOCCOCCOCCNc2cccc3c2C(=O)N(C2CCC(=O)NC2=O)C3=O)CC1 (stereo not drawn) [CZ47-11, 4-((15-(4-(4-((5-Chloro-4-((2-(isopropylsulfonyl)phenyl)amino)pyrimidin-2-yl)amino)-5-isopropoxy-2-methylphenyl)piperidin-1-yl)-15-oxo-3,6,9,12-tetraoxapentadecyl)amino)-2-(2,6-dioxopiperidin-3-yl)isoindoline-1,3-dione] | 20 to 80%
Cc1cc(Nc2ncc(Cl)c(Nc3ccccc3S(=O)(=O)C(C)C)n2)c(OC(C)C)cc1C1CCN(C(=O)COCCOCCOCCOCCOCC(=O)N[C@H](C(=O)N2C[C@H](O)C[C@H]2C(=O)NCc2ccc(-c3scnc3C)cc2)C(C)(C)C)CC1 [CZ47-20, (2S,4R)-1-((S)-2-(tert-Butyl)-20-(4-(4-((5-chloro-4-((2-(isopropylsulfonyl)phenyl)amino)pyrimidin-2-yl)amino)-5-isopropoxy-2-methylphenyl)piperidin-1-yl)-4,20-dioxo-6,9,12,15,18-pentaoxa-3-azaicosanoyl)-4-hydroxy-N-(4-(4-methylthiazol-5-yl)benzyl)pyrrolidine-2-carboxamide] | < 20%
Cc1cc(Nc2ncc(Cl)c(Nc3ccccc3S(=O)(=O)C(C)C)n2)c(OC(C)C)cc1C1CCN(C(=O)CCCCCCNc2cccc3c2C(=O)N(C2CCC(=O)NC2=O)C3=O)CC1 (stereo not drawn) [CZ47-06, 4-((7-(4-(4-((5-Chloro-4-((2-(isopropylsulfonyl)phenyl)amino)pyrimidin-2-yl)amino)-5-isopropoxy-2-methylphenyl)piperidin-1-yl)-7-oxoheptyl)amino)-2-(2,6-dioxopiperidin-3-yl)isoindoline-1,3-dione] | < 20%
